Molecular target: T1, EGFR (ErbB1) (Homo sapiens, UniProt P00533)
T1 construct: purchased Thermo Fisher Scientific (Life Technologies) SelectScreen
Test: SelectScreen Z'LYTE
Type: biochemical
Summary of the method: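 Percent values come from Thermo SelectScreen profiling of NU5455, combining activity and binding assays. CSF1R was run in Z'LYTE format at Km app ATP, and CAMK1 in Adapta format with ATP listed at 10.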

T1 sequence (P00533 25-1210): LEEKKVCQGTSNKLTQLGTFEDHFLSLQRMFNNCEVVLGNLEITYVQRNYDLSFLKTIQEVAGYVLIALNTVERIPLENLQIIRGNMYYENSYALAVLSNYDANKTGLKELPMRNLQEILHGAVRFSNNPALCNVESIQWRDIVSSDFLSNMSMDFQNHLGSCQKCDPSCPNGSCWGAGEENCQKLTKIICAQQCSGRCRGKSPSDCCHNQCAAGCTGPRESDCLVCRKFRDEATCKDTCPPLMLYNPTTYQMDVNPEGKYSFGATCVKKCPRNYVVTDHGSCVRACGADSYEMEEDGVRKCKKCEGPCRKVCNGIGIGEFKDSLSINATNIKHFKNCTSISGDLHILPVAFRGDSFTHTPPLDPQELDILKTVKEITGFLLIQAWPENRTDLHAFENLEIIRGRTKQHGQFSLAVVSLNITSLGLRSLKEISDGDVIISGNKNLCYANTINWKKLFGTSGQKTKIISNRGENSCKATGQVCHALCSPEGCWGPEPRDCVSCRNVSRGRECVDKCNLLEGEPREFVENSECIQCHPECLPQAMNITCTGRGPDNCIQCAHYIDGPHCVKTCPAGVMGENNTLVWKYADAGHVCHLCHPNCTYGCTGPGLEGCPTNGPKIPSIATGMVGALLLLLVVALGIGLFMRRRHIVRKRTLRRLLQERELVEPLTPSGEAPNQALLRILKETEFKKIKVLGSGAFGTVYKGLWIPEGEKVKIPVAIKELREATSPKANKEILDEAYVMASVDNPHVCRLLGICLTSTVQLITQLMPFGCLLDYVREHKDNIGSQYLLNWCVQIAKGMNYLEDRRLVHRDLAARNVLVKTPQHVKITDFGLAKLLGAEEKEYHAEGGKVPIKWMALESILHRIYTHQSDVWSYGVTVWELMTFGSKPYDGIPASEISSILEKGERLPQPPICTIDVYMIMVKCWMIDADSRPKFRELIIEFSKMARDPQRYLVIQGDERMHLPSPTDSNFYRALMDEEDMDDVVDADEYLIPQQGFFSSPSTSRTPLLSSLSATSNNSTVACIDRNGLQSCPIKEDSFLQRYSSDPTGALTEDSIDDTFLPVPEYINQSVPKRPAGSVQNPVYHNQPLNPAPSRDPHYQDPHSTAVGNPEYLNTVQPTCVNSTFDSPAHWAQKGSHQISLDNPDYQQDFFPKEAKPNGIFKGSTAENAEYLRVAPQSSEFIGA

CN(C(=O)CN1CCOCC1)c1ccc2sc3c(-c4cccc5c(=O)cc(N6CC7CCC(C6)O7)oc45)cccc3c2c1 [NU5455]
inhibition at 1 µM: 6%

From PMC6934184, “Selective DNA-PKcs inhibition extends the therapeutic index of localized radiotherapy and chemotherapy” (The Journal of Clinical Investigation, 2019)
